Our source for the Ki values is ChEMBL document CHEMBL1138663, “Synthesis and aromatase inhibitory activity of novel pyridine-containing isoflavones” (J Med Chem, 2004).

Each structure is given as a SMILES string.

For the assay, the target named is T1, Aromatase (Homo sapiens, UniProt P11511).
T1 sequence (P11511 whole entry): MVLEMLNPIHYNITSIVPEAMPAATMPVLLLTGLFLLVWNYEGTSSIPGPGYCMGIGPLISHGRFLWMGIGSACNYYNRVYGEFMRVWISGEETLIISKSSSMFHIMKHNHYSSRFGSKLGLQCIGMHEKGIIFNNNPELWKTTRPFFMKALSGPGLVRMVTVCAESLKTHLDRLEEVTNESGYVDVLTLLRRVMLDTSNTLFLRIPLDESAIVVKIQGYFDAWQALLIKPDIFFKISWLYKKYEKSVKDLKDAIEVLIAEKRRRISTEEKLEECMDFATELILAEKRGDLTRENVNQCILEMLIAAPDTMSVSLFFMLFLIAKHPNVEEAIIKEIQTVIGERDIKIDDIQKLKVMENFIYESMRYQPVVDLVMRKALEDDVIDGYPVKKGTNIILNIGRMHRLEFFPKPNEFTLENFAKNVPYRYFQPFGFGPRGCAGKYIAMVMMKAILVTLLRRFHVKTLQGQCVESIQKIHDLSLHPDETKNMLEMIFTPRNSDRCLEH

For the compound `O=c1c(-c2ccc(O)cc2)coc2cc(O)cc(O)c12` [GENISTEIN], the Ki amounted to 123 µM.
